Columns and labels:
[1] = Thermal stability, TG/DTA measurement; conditions: for thermal stability higher compared to Z-DOL (Comparative Example 10C) / thermal stability higher compared to Z-TETRAOL (Comparative Example 11C): difference of weight reduction temperatures; for Weight reduction temperature 5% / Weight reduction temperature 10% / Weight reduction temperature 20%: air 200 mL/min, 30° C. to 600° C., heating rate 10° C./min
[2] = in acetonitrile; cited from earlier work
[3] = Solubility to fluorine-based solvent (Vertrel XF), 1.0/0.5/0.1 parts by mass added; conditions: Vertrel XF [CF3(CHF)2CF2CF3], 25° C., ultrasonic waves 5 minutes, left 1 day, visual observation; 0.5 and 0.1 parts by mass per 100 parts
Protocol: Then, the resultant was left to stand for 1 day and solubility thereof was visually observed.
Then, the resultant was left to stand for 1 day and solubility thereof was visually observed, followed by evaluation based on the following evaluation criteria.
[Evaluation Criteria] • 0.5% by mass or more:
When 0.5 parts by mass of the ionic liquid was added, dissolution was found. • 0.1% by mass or more but less than 0.5% by mass:
When 0.5 parts by mass of the ionic liquid was added, no dissolution was found. However, when 0.1 parts by mass of the ionic liquid was added, dissolution was found. • Less than 0.1% by mass:
When 0.5 parts by mass of the ionic liquid was added, no dissolution was found. Moreover, when 0.1 parts by mass of the ionic liquid was added, no dissolution was found.

[4] = Solubility to solvents (Vertrel XF, n-hexane, ethanol); format: physicochemical; conditions: 25° C., visual observation after 1 day; for Solubility Fluorine-based solvent: Vertrel XF, 0.2 parts by mass per 100 parts; for Solubility Ethanol / Solubility n-Hexane: 0.5 parts by mass per 100 parts
Protocol: To a predetermined mass of Vertrel XF, n-hexane, or ethanol, each of the ionic liquids was added and was irradiated with ultrasonic waves for 5 minutes. Then, the resultant was left to stand for 1 day and solubility thereof was visually observed.
Specifically, to 100 parts by mass of Vertrel XF (25° C.), 0.2 parts by mass of the ionic liquid was added and was irradiated with ultrasonic waves for 5 minutes. Then, the resultant was left to stand for 1 day and solubility thereof was visually observed, followed by evaluation based on the following evaluation criteria. In the cases of n-hexane and ethanol, each of the ionic liquids (0.5 parts by mass) was added to 100 parts by mass of n-hexane or ethanol at 25° C. The resultant was irradiated with ultrasonic waves for 5 minutes. Then, the resultant was left to stand for 1 day and solubility thereof was visually observed, followed by evaluation based on the following evaluation criteria.
<<Vertrel XF>> • 0.2% by mass or more:
When 0.2 parts by mass of the ionic liquid was added, dissolution was found. • Less than 0.2% by mass:
When 0.2 parts by mass of the ionic liquid was added, no dissolution was found.
<<n-Hexane and Ethanol>> • 0.5% by mass or more:
When 0.5 parts by mass of the ionic liquid was added, dissolution was found. • Less than 0.5% by mass:

Row | Molecule | Weight reduction temperature 5% [1] | Weight reduction temperature 10% [1] | Weight reduction temperature 20% [1] | also measured
1 | CCCCCCCCCCCCCCCCCC[n+]1ccn(CCCO)c1CCCCCCCCCCCCCCCCC.O=S(=O)([N-]S(=O)(=O)C(F)(F)C(F)(F)C(F)(F)C(F)(F)F)C(F)(F)C(F)(F)C(F)(F)C(F)(F)F |  |  |  | thermal stability higher compared to Z-DOL (Comparative Example 10C) [1]: ≥ 160 °C; thermal stability higher compared to Z-TETRAOL (Comparative Example 11C) [1]: ≥ 85 °C
2 | CCCCCCCCCCCCCC[N+](C)(C)CCCO.O=S(=O)([N-]S(=O)(=O)C(F)(F)C(F)(F)C(F)(F)C(F)(F)F)C(F)(F)C(F)(F)C(F)(F)C(F)(F)F |  |  |  | thermal stability higher compared to Z-DOL (Comparative Example 10C) [1]: ≥ 145 °C; thermal stability higher compared to Z-TETRAOL (Comparative Example 11C) [1]: ≥ 90 °C
3 | CCCCCCCCCCCCCCCCCC[N+](C)(C)CCCO.O=S(=O)([N-]S(=O)(=O)C(F)(F)C(F)(F)C(F)(F)C(F)(F)F)C(F)(F)C(F)(F)C(F)(F)C(F)(F)F |  |  |  | thermal stability higher compared to Z-DOL (Comparative Example 10C) [1]: ≥ 150 °C; thermal stability higher compared to Z-TETRAOL (Comparative Example 11C) [1]: ≥ 90 °C
4 | CCCCCCCCCCCCCCCCCC[N+]1(CCCO)CCCC1.O=S(=O)([N-]S(=O)(=O)C(F)(F)C(F)(F)C(F)(F)C(F)(F)F)C(F)(F)C(F)(F)C(F)(F)C(F)(F)F |  |  |  | thermal stability higher compared to Z-DOL (Comparative Example 10C) [1]: ≥ 160 °C; thermal stability higher compared to Z-TETRAOL (Comparative Example 11C) [1]: ≥ 100 °C
5 | CCCCCCCCCCCCCCCCCC[n+]1ccn(CCCO)c1.O=S(=O)([N-]S(=O)(=O)C(F)(F)C(F)(F)C(F)(F)C(F)(F)F)C(F)(F)C(F)(F)C(F)(F)C(F)(F)F |  |  |  | thermal stability higher compared to Z-DOL (Comparative Example 10C) [1]: ≥ 150 °C; thermal stability higher compared to Z-TETRAOL (Comparative Example 11C) [1]: ≥ 90 °C
6 | O=S(=O)(C(S(=O)(=O)C(F)(F)F)S(=O)(=O)C(F)(F)F)C(F)(F)F [(CF3SO2)3CH] |  |  |  | pKa [2]: −3.7
7 | CCCCCCCCCCCCCCCCCC[n+]1ccn(CCCC)c1.O=S1(=O)[N-]S(=O)(=O)C(F)(F)C(F)(F)C1(F)F [Comparative Example 2A, hexafluorocyclopropane-1,3-bis(sulfonyl)imide-1-butyl-3-n-octadecylimidazolium, reference compound] | 347.2 °C | 367.0 °C | 387.8 °C | Fluorine-based solvent solubility [3]: Less than 0.1% by % by mass
8 | CCCCCCCCCCCCCCCCCCC1CCCCN2CCCN=C12.O=S1(=O)NS(=O)(=O)C(F)(F)C(F)(F)C1(F)F (stereo not drawn) [Comparative Example 4A, hexafluorocyclopropane-1,3-bis(sulfonyl)imide-6-octadecyl-1,8-diazabicyclo[5.4.0]-7-undecenium, reference compound] | 346.3 °C | 384.1 °C | 414.0 °C | Fluorine-based solvent solubility [3]: Less than 0.1% by % by mass
9 | CCCCCCCCCCCCCCCCCCn1ccnc1CCCCCCCCCCCCCCCCC.O=S1(=O)NS(=O)(=O)C(F)(F)C(F)(F)C1(F)F [Comparative Example 7A, hexafluorocyclopropane-1,3-bis(sulfonyl)imide-1-octadecyl-2-heptadecylimidazolium, reference compound] | 303.7 °C | 366.4 °C | 405.0 °C | Solubility Fluorine-based solvent [4]: Less than 0.2% by mass; Solubility Ethanol [4]: ≥ 0.5% by mass; Solubility n-Hexane [4]: < 0.5% by mass
10 | CCCCCCCCCCCCCCCCCCN.O=S(=O)(NS(=O)(=O)C(F)(F)C(F)(F)C(F)(F)C(F)(F)F)C(F)(F)C(F)(F)C(F)(F)C(F)(F)F [Comparative Example 8A, bis(nonafluorobutanesulfonyl)imide-octadecylammonium, reference compound] | 311.8 °C | 329.8 °C | 348.0 °C | Solubility Fluorine-based solvent [4]: Less than 0.2% by mass; Solubility Ethanol [4]: ≥ 0.5% by mass; Solubility n-Hexane [4]: < 0.5% by mass
11 | CCCCCCCCCCCCCCCCCC[n+]1ccn(CCCO)c1.O=S(=O)([N-]S(=O)(=O)C(F)(F)C(F)(F)C(F)(F)C(F)(F)F)C(F)(F)C(F)(F)C(F)(F)C(F)(F)F [Example 2A, bis(nonafluorobutanesulfonyl)imide1-3′hydroxypropyl-3-octadecylimidazolium] | 327.7 °C | 361.7 °C | 389.3 °C | 
12 | CCCCCCCCCCCCCCCCCC[N+]1(CCCO)CCCC1.O=S(=O)([N-]S(=O)(=O)C(F)(F)C(F)(F)C(F)(F)C(F)(F)F)C(F)(F)C(F)(F)C(F)(F)C(F)(F)F [Example 3A, bis(nonafluorobutanesulfonyl)imide-N-3′hydroxypropyl-N-octadecylpyrrolidinium] | 349.8 °C | 370.8 °C | 387.6 °C | 
13 | CCCCCCCCCCCCCCCCCCC1CCCCN2CCC[N+](CCCO)=C12.O=S(=O)([N-]S(=O)(=O)C(F)(F)C(F)(F)C(F)(F)C(F)(F)F)C(F)(F)C(F)(F)C(F)(F)C(F)(F)F (stereo not drawn) [Example 5A, bis(nonafluorobutanesulfonyl)imide-6-octadecyl-8-3′-hydroxypropyl-1,8-diazabicyclo[5.4 0.0]-7-undecenium] | 326.2 °C | 360.8 °C | 387.7 °C | thermal stability higher compared to Z-DOL (Comparative Example 10C) [1]: ≥ 160 °C; thermal stability higher compared to Z-TETRAOL (Comparative Example 11C) [1]: ≥ 85 °C
14 | CCCCCCCCCCCCCCCCCC[n+]1ccn(CCCO)c1CCCCCCCCCCCCCCCCC.O=S(=O)([N-]S(=O)(=O)C(F)(F)C(F)(F)C(F)(F)C(F)(F)F)C(F)(F)C(F)(F)C(F)(F)C(F)(F)F [Example 8A, bis(nonafluorobutanesulfonyl)imide-1-3′hydroxypropyl-2-heptadecyl-3-octadecylimidazolium] | 327.8 °C | 364.3 °C | 398.8 °C | 
15 | CCCCCCCCCCCCCC[N+](C)(C)CCCO.O=S(=O)([N-]S(=O)(=O)C(F)(F)C(F)(F)C(F)(F)C(F)(F)F)C(F)(F)C(F)(F)C(F)(F)C(F)(F)F [Example 9A, bis(nonafluorobutanesulfonyl)imide-N-3′hydroxypropyl-N,N-dimethyltetradecylammonium] | 340.0 °C | 359.0 °C | 375.0 °C | 
16 | CCCCCCCCCCCCCCCCCC[N+](C)(C)CCCO.O=S(=O)([N-]S(=O)(=O)C(F)(F)C(F)(F)C(F)(F)C(F)(F)F)C(F)(F)C(F)(F)C(F)(F)C(F)(F)F [Example 10A, bis(nonafluorobutanesulfonyl)imide-N-3′hydroxypropyl-N,N-dimethyloctadecylammonium] | 336.5 °C | 359.4 °C | 376.6 °C | 
17 | O=S(=O)(NS(=O)(=O)C(F)(F)C(F)(F)C(F)(F)C(F)(F)F)C(F)(F)C(F)(F)C(F)(F)C(F)(F)F [bis(nonafluorobutanesulfonyl)imide] |  |  |  | pKa [2]: 0.0
18 | O=S1(=O)NS(=O)(=O)C(F)(F)C(F)(F)C1(F)F [hexafluorocyclopropane-1,3-bis(sulfonyl)imide] |  |  |  | pKa [2]: −0.8
19 | F[B-](F)(F)F.[H+] [tetrafluoroboric acid] |  |  |  | pKa [2]: 1.8
20 | bis(nonafluorobutanesulfonyl)imide-1-dodecyl-2-undecyl-3-3′hydroxypropyloctadecylimidazolium [Example 7A] | 350.9 °C | 373.7 °C | 394.8 °C | 
21 | heptadecafluorooctanesulfonic acid-6-octadecyl-1,8-diazabicyclo[5.4.0]-7-undecenium | 361.9 °C | 382.7 °C | 403.5 °C | 
22 | heptadecafluorooctanesulfonic acid-6-octadecyl-1,8-diazabicyclo[5.4.0]-7-undecenium [Comparative Example 3A] |  |  |  | Fluorine-based solvent solubility [3]: Less than 0.1% by % by mass
23 | nonafluorobutanesulfonic acid-1-octadecyl-2-heptadecylimidazolium | 338.2 °C | 365.9 °C | 390.1 °C | 
24 | nonafluorobutanesulfonic acid-1-octadecylimidazolium | 349.3 °C | 375.0 °C | 397.5 °C | 
25 | nonafluorobutanesulfonic acid-N,N,N-trimethyloctadecylammonium [Comparative Example 9A, reference compound] | 340.5 °C | 356.2 °C | 371.9 °C | 
26 | pentadecafluorooctanoic acid octadecylammonium [Comparative Example 5A, reference compound] | 206.9 °C | 215.8 °C | 223.4 °C | Fluorine-based solvent solubility [3]: Less than 0.1% by % by mass
27 | pentadecafluorooctanoic acid octadecylammonium [pentadecafluorooctanoic acid octadecylammonium] | 206.9 °C | 215.8 °C | 223.4 °C | 
28 | perfluorocyclopropane sulfoimide |  |  |  | pKa [2]: −0.8

From patent US20190051326A1, “Ionic Liquid, Lubricant, and Magnetic Recording Medium” (priority 2016, published 2019)
